Test in all cases: biochemical
Holding throughout (type): binding

In one test the target is T1, GRB2 (Homo sapiens, UniProt P62993).
T1 construct: the DNA-tagged SH2 domain concentrations used in this study were <0.1 nM; made in house; host or cells: HEK293 (transient transfection; unpurified extract)

For a further test, the target named is T2, PTPN11(SH2dom.C-term.) (Homo sapiens, UniProt Q06124).
T2 construct: SH2dom.C-term. denotes SH2 domain closest to C-terminus of protein; made in house; host or cells: HEK293 (transient transfection, unpurified extract)
T2 sequence (Q06124 112-216 limits assumed): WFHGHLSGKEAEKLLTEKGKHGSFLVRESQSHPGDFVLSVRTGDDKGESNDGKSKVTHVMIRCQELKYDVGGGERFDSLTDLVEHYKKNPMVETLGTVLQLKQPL

The next test has as its target T3, CBLB (Homo sapiens, UniProt Q13191).
T3 construct: the DNA-tagged SH2 domain concentrations used in this study were <0.1 nM; made in house; host or cells: HEK293 (transient transfection; unpurified extract)

The target in the next test is T4, CBLC (Homo sapiens, UniProt Q9ULV8).
T4 construct: the DNA-tagged SH2 domain concentrations used in this study were <0.1 nM; made in house; host or cells: HEK293 (transient transfection; unpurified extract)
T4 sequence (Q9ULV8 219-321 limits assumed): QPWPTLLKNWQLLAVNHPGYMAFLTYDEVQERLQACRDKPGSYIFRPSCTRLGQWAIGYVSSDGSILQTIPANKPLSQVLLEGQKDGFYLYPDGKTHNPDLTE

In the next test the target is T5, SRMS (Homo sapiens, UniProt Q9H3Y6).
T5 construct: made in house; host or cells: HEK293 (transient transfection), unpurified extract

Another test concerns the target T6, GRAP (Homo sapiens, UniProt Q13588).
T6 construct: the DNA-tagged SH2 domain concentrations used in this study were <0.1 nM; made in house; host or cells: HEK293 (transient transfection; unpurified extract)

A further test deals with T7, SH2D1B (Homo sapiens, UniProt O14796).
T7 construct: made in house; host or cells: HEK293 (transient transfection), unpurified extract
T7 sequence (O14796 1-132): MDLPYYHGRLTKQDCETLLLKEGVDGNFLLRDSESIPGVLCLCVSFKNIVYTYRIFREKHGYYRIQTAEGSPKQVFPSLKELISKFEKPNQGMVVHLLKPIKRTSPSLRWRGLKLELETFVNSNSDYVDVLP

The next test concerns the target T8, FGR (Homo sapiens, UniProt P09769).
T8 construct: the DNA-tagged SH2 domain concentrations used in this study were <0.1 nM; made in house; host or cells: HEK293 (transient transfection; unpurified extract)

Another test concerns the target T9, LYN (Homo sapiens, UniProt P07948).
T9 construct: the DNA-tagged SH2 domain concentrations used in this study were <0.1 nM; made in house; host or cells: HEK293 (transient transfection, unpurified extract)

The target of the next test is T10, SHB (Homo sapiens, UniProt Q15464).
T10 construct: made in house; host or cells: HEK293 (transient transfection), unpurified extract

The target of another test is T11, SH2B (SH2B1) (Homo sapiens, UniProt Q9NRF2).
T11 construct: made in house; host or cells: HEK293 (transient transfection), unpurified extract

Non-standard residues stand in square brackets, D forms with d. Residues, ends and D or L forms follow the SMILES beside them. pY = N[C@@H](Cc1ccc(OP(=O)(O)O)cc1)C(=O)O

The values that follow come from article PMC12951562, “SH2scan: Mapping SH2 Domain-Ligand Binding Selectivity for Inhibitors and Degraders” (Journal of Medicinal Chemistry, 2026).

T1 sequence (P62993 60-152 limits assumed): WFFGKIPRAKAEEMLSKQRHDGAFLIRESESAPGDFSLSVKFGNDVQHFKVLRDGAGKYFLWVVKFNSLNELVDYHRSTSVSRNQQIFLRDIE
T3 sequence (Q13191 241-343 limits assumed): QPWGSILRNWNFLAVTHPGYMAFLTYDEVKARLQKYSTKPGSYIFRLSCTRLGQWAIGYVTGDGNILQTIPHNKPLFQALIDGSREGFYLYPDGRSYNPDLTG
T8 sequence (P09769 144-241 limits assumed): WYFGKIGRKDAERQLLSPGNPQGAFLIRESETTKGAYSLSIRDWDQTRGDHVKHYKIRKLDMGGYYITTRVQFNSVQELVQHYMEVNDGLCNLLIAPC
T10 sequence (Q15464 whole entry): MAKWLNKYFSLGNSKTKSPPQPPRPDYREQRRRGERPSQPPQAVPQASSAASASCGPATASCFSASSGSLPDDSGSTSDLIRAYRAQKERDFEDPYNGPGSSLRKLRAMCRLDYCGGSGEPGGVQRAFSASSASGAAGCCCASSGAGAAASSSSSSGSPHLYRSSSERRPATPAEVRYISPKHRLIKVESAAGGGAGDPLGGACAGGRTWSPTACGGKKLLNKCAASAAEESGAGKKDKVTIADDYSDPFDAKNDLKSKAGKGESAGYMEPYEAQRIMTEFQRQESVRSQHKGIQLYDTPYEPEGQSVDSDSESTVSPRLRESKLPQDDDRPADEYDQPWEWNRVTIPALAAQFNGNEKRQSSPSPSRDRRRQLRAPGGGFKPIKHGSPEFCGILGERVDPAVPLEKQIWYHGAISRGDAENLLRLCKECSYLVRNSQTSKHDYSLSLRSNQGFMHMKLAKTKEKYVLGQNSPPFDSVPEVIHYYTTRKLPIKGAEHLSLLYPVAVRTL
T6 sequence (Q13588 60-154 limits assumed): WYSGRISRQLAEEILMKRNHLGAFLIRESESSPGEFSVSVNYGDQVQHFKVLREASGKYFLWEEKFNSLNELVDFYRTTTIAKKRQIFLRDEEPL
T9 sequence (P07948 129-226 limits assumed): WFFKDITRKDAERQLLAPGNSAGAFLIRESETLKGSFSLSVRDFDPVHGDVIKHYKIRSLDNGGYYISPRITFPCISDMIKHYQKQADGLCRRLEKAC
T5 sequence (Q9H3Y6 whole entry): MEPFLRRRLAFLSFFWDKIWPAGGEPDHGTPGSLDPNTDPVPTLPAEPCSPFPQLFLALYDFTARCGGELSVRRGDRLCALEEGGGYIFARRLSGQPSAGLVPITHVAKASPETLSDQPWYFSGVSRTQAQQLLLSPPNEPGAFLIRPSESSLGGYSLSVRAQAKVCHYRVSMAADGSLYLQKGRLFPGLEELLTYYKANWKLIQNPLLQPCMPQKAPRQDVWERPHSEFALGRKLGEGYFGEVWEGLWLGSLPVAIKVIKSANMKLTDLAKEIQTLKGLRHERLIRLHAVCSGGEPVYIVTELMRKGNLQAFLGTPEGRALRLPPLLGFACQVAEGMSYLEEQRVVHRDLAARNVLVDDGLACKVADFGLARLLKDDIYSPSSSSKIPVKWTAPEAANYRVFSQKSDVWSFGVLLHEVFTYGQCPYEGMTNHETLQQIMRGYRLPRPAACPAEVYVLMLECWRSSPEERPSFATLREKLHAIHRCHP

On to `CC[C@H](C)[C@H](NC(=O)[C@H](Cc1ccc(OP(=O)(O)O)cc1)NC(=O)[C@H](CO)NC(C)=O)C(=O)N[C@@H](CC(N)=O)C(=O)N[C@H](C(=O)N1CCC[C@H]1C(=O)N[C@@H](Cc1ccccc1)C(=O)N[C@H](C(=O)N[C@@H](CO)C(N)=O)[C@@H](C)O)C(C)C` (Ac-S[pY]INVPFTS-NH2), for which, on GRB2, the Kd – broadly, a measure of binding affinity in units of concentration – amounted to 69.4 ± 19.4 nM. In the case of `CC[C@H](C)[C@H](NC(=O)[C@@H](NC(=O)[C@H](C)NC(=O)[C@H](Cc1ccc(OP(=O)(O)O)cc1)NC(=O)[C@@H](NC(=O)[C@@H]1CCCN1C(=O)[C@H](CCC(=O)O)NC(=O)[C@@H]1CCCN1C(=O)[C@H](CO)NC(=O)[C@H](C)NC(C)=O)[C@@H](C)CC)[C@@H](C)O)C(=O)N[C@@H](CC(=O)O)C(=O)N[C@@H](Cc1ccccc1)C(=O)N[C@@H](CC(=O)O)C(N)=O` [Ac-ASPEPIpYATIDFD-NH2], the Kd at PTPN11(SH2dom.C-term.) came out at 403 ± 198 nM. For `CC(=O)N[C@@H](CCC(=O)O)C(=O)N[C@@H](CC(=O)O)C(=O)N[C@@H](CO)C(=O)N[C@@H](Cc1ccccc1)C(=O)N[C@@H](CC(C)C)C(=O)N[C@@H](CCC(N)=O)C(=O)N[C@@H](CCCNC(=N)N)C(=O)N[C@@H](Cc1ccc(OP(=O)(O)O)cc1)C(=O)N[C@@H](CO)C(=O)N[C@@H](CO)C(=O)N[C@@H](CC(=O)O)C(=O)N1CCC[C@H]1C(=O)N[C@H](C(N)=O)[C@@H](C)O` [Ac-EDSFLQRpYSSDPT-NH2], the Kd at CBLB came to 373 ± 114 nM; on CBLC, 146 ± 52 nM. With `CC(=O)N[C@@H](CCCCN)C(=O)N1CCC[C@H]1C(=O)N[C@@H](Cc1ccccc1)C(=O)N[C@@H](Cc1ccc(OP(=O)(O)O)cc1)C(=O)N[C@H](C(=O)N[C@@H](CC(N)=O)C(=O)N[C@H](C(=O)N[C@@H](CCC(=O)O)C(=O)N[C@@H](Cc1ccccc1)C(N)=O)C(C)C)C(C)C` [Ac-KPFpYVNVEF-NH2] (Ac-KPF[pY]VNVEF-NH2), the Kd is 23600 ± 3030 nM at SRMS and 21.3 ± 4.83 nM at GRAP. In the case of `CC[C@H](C)[C@H](NC(=O)[C@@H](NC(=O)[C@H](CC(C)C)NC(=O)[C@H](CO)NC(=O)[C@H](CCCCN)NC(C)=O)[C@@H](C)O)C(=O)N[C@@H](Cc1ccc(OP(=O)(O)O)cc1)C(=O)N[C@@H](C)C(=O)N[C@@H](CCC(N)=O)C(=O)N[C@H](C(=O)N[C@@H](CCC(N)=O)C(=O)N[C@@H](CCCCN)C(N)=O)C(C)C` [Ac-KSLTIpYAQVQK-NH2] (Ac-KSLTI[pY]AQVQK-NH2), the Kd on SH2D1B turned out to be 0.14 ± 0.03 nM. In the case of `CC(=O)N1CCC[C@H]1C(=O)N[C@@H](CCC(=O)O)C(=O)NCC(=O)N[C@@H](CC(=O)O)C(=O)N[C@@H](Cc1ccc(OP(=O)(O)O)cc1)C(=O)N[C@@H](CCC(=O)O)C(=O)N[C@@H](CCC(=O)O)C(=O)N[C@H](C(=O)N[C@@H](CC(C)C)C(=O)N[C@@H](CCC(=O)O)C(N)=O)C(C)C` [Ac-PEGDpYEEVLE-NH2] (Ac-PEGD[pY]EEVLE-NH2), the Kd on FGR turned out to be 1820 ± 510 nM; at LYN, 765 ± 141 nM. Consider `CC[C@H](C)[C@H](NC(=O)[C@H](CC(N)=O)NC(=O)[C@@H](NC(=O)[C@H](Cc1ccc(OP(=O)(O)O)cc1)NC(=O)[C@H](CCC(=O)O)NC(=O)CNC(=O)[C@@H]1CCCN1C(=O)[C@H](CO)NC(C)=O)C(C)C)C(=O)N[C@@H](CCC(=O)O)C(=O)N[C@@H](Cc1ccccc1)C(=O)NCC(N)=O` [Ac-SPGEpYVNIEFG-NH2], for which the Kd on SHB is 6030 ± 1090 nM; on SH2B (SH2B1), 4460 ± 615 nM.
